Measurements as given in patent publication US10301267B2, “Compounds” (AstraZeneca AB, priority 2006, dated 2019).
Read-outs that look alike come from different tables or passages of the source.

Key:
[1] = tested on: bFGF stimulated Erk phosphorylation in NIH 3T3 cells; assay: Cell pErk - growth factor stimulated Erk phosphorylation; type: cell-based; conditions: Mus musculus
Source text: Cell Assays Cell pErk—Growth Factor Stimulated Erk Phosphorylation
These and other assays were used to evaluate the ability of a test compound to inhibit growth factor stimulated cellular signalling in mammalian cell lines. This was achieved by measuring the amount of receptor tyrosine kinase regulated Erk phosphorylation within a cell following compound treatment.
NIH 3T3 (ECACC, 93061524) cells were routinely passaged in DMEM (Gibco BRL, 41966) plus 10% foetal calf serum (FCS), 1% L-glutamine (Gibco BRL, 25030) to a confluence not greater than 80%. To undertake the assay, NIH 3T3's were seeded at 1×10^4 cells/well in DMEM plus 10% foetal calf serum, 1% L-glutamine in 96 well plates (Costar, 3904) and incubated at 37° C. (+5% CO2) in a humidified incubator. Once the cells had fully adhered (typically following 4-5 hours incubation) the media was removed from each well and the cells gently washed with 100 μl warm serum free media. 90 μl of serum free DMEM plus 1% L-glutamine was then added to each well and the plates were returned to a humidified 37° C. (+5% CO2) incubator. The following day, the plates were dosed with 10 μl compound (diluted from 10 mM stock in DMSO using serum free DMEM) and the plates were returned to a humidified 37° C. (+5% CO2) incubator for one hour. NIH 3T3 cells were then stimulated with a final concentration of 3 ng/ml bFGF (Sigma, F0291) for 20 minutes at 37° C. Following stimulation the cells were fixed by adding formaldehyde (4% v/v final concentration) and incubating at room temperature for 20 minutes. The fixative solution was then removed and the wells were washed twice with 100 μl phosphate buffered saline (PBS/A) before permeabilising the cells by the addition of 50 μl/well 0.1% triton/PBS/A for 10 minutes at room temperature. The permeabilisation solution was then removed and the cells washed twice more with 100 μl/well PBS/A before the addition of 50 μl/well anti-phospho p44/42 antibody (Cell Signalling Technology, 9106), diluted 1/500 with PBS/A plus 10% FCS. The anti-phospho p44/42 antibody recognises Erk phosphorylated at threonine 202 and tyrosine 204. Following incubation at room temperature for 2 hours, the antibody solution was removed and the wells were washed twice with 100 μl/well PBS/A. 50 μl/well 1/250 goat anti-mouse alexa fluor 488 secondary antibody (Molecular Probes, A11001) and 1/10000 Hoescht (Molecular Probes, H-3570) diluted with PBS/A plus 10% FCS was added and the plate incubated in the dark at room temperature for one hour. Finally, the plates were washed three times with 100 μl/well PBS/A, leaving the final wash in the wells before sealing the plates. The plates were read at 350 nm and 488 nm using an Arrayscan (Cellomics). […] IC50 value is the concentration of test compound that inhibits 50% of Erk phosphorylation.

[2] = biological target: T1, His6-tagged FGFR kinase domain (Homo sapiens, UniProt P11362, C488A/C584S); assay: FGFR Kinase assay - Elisa; type: biochemical
T1 construct: FGFR kinase domain (amino acids 458-765, C488A, C584S) N-terminally fused to a His6-tag and TEV cleavage site; His6-tag plus linker and TEV cleavage site (printed as X1); made in house
Description: To determine inhibition of FGFR activity, kinase assays were conducted using ELISA (Enzyme-Linked Immunosorbent Assay) technology.
Kinase activity assays were performed in 384-well polypropylene plates (Matrix, Catalogue No. 4311. Matrix are part of Thermo Fisher Scientific, 22 Friars Drive, Hudson, N.H. 03051, USA) with a total volume of 40 μl in each well. Each well was coated with 2 μg of polyEAY substrate (Sigma, Catalogue No. P3899) at 4° C. overnight. The plates were then washed once with 100 μl PBS and once with 100 μl 50 mM HEPES (pH 7.4) prior to the addition of the kinase assay reagents. Reactions contained His6-tagged FGFR kinase domain (FGFR kinase domain (amino acids 458-765, C488A, C584S) N-terminally fused to a His6-tag and TEV cleavage site encoded by the following sequence; [[…]]. The final alanine denotes the start of the FGFR protein sequence. The resultant protein was expressed and purified based on Mohammadi et al, Cell Vol 86, 577-587 (1996). Each kinase reaction contained 0.1 ng His6-tagged FGFR kinase domain, 50 mM HEPES (pH 7.4), 0.1 mM Na3VO4, 0.1 mM DTT, 0.05% (v/v) Triton X100, 20 mM MgCl2, 160 μM ATP. Various concentrations of test compounds were each added in 5% (v/v) DMSO to yield a final assay DMSO concentration of 1.25% (v/v). The kinase reactions were incubated at room temperature for 45 minutes and stopped by washing the plate three times with 100 μl PBS plus 0.05% Tween. 40 μl of a one in 10000 dilution of 4G10-HRP antibody (Upstate Biotechnology, UBI 16-105. Upstate are part of Millipore Corporation, 290 Concord Road, Billerca Mass. 01821 USA) made up in 0.5% (w/v) BSA/PBS was then added to each well and the plates incubated at room temperature for one hour. Following this, the plates were then washed repeatedly with 100 μl PBS plus 0.05% Tween to remove all traces of the antibody solution. 40 μl of 50 μg/ml 3,3′,5,5′-Tetramethylbenzidine (Sigma, Catalogue No. T2885), 0.05M phosphate-citrate buffer, containing 0.03% sodium perborate was added to each well and the plates incubated at room temperature for twelve minutes. The colour reaction was stopped by the addition of 20 μl 2M H2SO4 and the plates read at 450 nm on a Spectrafluor Plus (Tecan Trading AG, Switzerland). In the assay, compounds were tested at a range of concentrations.
Percentage inhibition at 1 uM, as expressed herein, is a calculated value based on the curve fit that was generated experimentally. From the fitted curve plot, the effect of compound at a concentration of 1 uM was calculated as a percentage inhibition. The IC50 value is the concentration of test compound that inhibits 50% of FGFR kinase activity.

FGFR1 active kinase = FGFR1 active kinase (Homo sapiens, UniProt P11362); assay: FGFR Kinase assay - Caliper; type: biochemical; as to FGFR Kinase assay - Caliper, IC50: 408 µM ATP
[3] = NIH3T3, 3 ng/ml bFGF, read-out: Activity class (Cell pErk)
[4] = FGFR inhibition test, Elisa, read-out: Activity class (FGFR Kinase assay - Elisa)
[5] = polyEAY substrate, 160 μM ATP, read-out: FGFR Kinase assay - Elisa, IC50
[6] = FGFR1 […], 408 uM ATP, mean of n as printed, read-out: FGFR Kinase assay - Caliper, IC50
[7] = FGFR inhibition test, Caliper, read-out: Activity class (FGFR Kinase assay - Caliper)

T1 sequence (P11362 458-765 C488A/C584S): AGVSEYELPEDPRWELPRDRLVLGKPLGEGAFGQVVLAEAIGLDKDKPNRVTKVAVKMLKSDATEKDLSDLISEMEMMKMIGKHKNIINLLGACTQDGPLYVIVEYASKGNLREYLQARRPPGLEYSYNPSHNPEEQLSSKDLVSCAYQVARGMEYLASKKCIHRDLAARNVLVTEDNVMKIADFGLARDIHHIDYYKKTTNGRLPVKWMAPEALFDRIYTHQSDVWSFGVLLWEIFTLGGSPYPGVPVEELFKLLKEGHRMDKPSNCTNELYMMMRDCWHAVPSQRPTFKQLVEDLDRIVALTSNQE
FGFR1 active kinase, sequence (P11362 22-822): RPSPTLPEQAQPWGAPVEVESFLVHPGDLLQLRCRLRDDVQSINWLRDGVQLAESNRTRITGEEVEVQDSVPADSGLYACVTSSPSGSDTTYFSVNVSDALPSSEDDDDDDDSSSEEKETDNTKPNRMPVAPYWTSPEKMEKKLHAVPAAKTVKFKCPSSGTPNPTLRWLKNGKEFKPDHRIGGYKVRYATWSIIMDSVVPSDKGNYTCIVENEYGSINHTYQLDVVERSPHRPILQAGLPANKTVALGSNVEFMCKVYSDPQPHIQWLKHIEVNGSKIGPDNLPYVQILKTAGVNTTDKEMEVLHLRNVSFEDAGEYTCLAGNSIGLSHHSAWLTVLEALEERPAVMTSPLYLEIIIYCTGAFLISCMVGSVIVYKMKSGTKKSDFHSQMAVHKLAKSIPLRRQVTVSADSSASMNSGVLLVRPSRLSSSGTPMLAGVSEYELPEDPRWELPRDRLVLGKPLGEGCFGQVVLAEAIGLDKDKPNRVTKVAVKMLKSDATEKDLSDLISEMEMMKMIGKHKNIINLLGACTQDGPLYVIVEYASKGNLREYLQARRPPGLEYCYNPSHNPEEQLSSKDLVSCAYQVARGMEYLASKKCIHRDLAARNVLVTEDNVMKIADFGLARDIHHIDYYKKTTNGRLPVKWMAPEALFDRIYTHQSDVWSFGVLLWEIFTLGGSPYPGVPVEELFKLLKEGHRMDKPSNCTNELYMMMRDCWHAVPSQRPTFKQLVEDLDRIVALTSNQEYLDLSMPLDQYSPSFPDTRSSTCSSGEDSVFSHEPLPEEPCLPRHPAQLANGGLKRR

IC50 [2, 4]	IC50 [2, 5]	IC50 (FGFR1 active kinase; [6])	IC50 (FGFR1 active kinase; [7])	IC50 ([2]; footnote example, read-out: FGFR Kinase assay - Elisa, value in table footnote)	IC50 (FGFR1 active kinase; footnote example, read-out: FGFR Kinase assay - Caliper, value in table footnote)	Compound	IC50 [1, 3]	IC50 ([1]; NIH3T3, footnote example, read-out: Cell pErk, value in table footnote)
< 300 nM	220 nM	–	–	–	–	CN1CCN(c2ccc(C(=O)Nc3cc(CCc4ccccc4)n[nH]3)cc2)CC1 [Example 1, 4-(4-methylpiperazin-1-yl)-N-(5-phenethyl-2H-pyrazol-3-yl)benzamide]	300 to 1000 nM	–
–	–	140 nM	–	–	–	COc1cc(CCc2cc(NC(=O)c3ccccc3)[nH]n2)cc(OC)c1 [Example 2, N-[5-[2-(3,5-dimethoxyphenyl)ethyl]-2H-pyrazol-3-yl]benzamide]	< 300 nM	–
< 300 nM	–	132 nM	< 300 nM	–	–	COc1ccc(C(=O)Nc2cc(CCc3cc(OC)cc(OC)c3)n[nH]2)cc1 [Example 3, N-[5-[2-(3,5-dimethoxyphenyl)ethyl]-2H-pyrazol-3-yl]-4-methoxy-benzamide]	–	–
< 300 nM	–	68 nM	< 300 nM	–	–	COc1cc(CCc2cc(NC(=O)c3ccc(N4CCOCC4)cc3)[nH]n2)cc(OC)c1 [Example 4, N-[5-[2-(3,5-dimethoxyphenyl)ethyl]-2H-pyrazol-3-yl]-4-morpholin-4-yl-benzamide]	–	–
< 300 nM	–	63 nM	< 300 nM	–	–	COc1cc(CCc2cc(NC(=O)c3ccc(CN4CCC(F)CC4)cc3)[nH]n2)cc(OC)c1 [Example 5, N-[5-[2-(3,5-dimethoxyphenyl)ethyl]-2H-pyrazol-3-yl]-4-[(4-fluoropiperidin-1-yl)methyl]benzamide]	–	–
< 300 nM	–	58 nM	< 300 nM	–	–	COCCOc1cccc(CCc2cc(NC(=O)c3ccc(N4CCN(C)CC4)cc3)[nH]n2)c1 [Example 6, N-[5-[2-[3-(2-methoxyethoxy)phenyl]ethyl]-2H-pyrazol-3-yl]-4-(4-methylpiperazin-1-yl)benzamide]	–	–
< 300 nM	–	47 nM	< 300 nM	–	–	CN1CCN(c2ccc(C(=O)Nc3cc(CCc4cccnc4)n[nH]3)cc2)CC1 [Example 7, 4-(4-methylpiperazin-1-yl)-N-[5-(2-pyridin-3-ylethyl)-2H-pyrazol-3-yl]benzamide]	1000 to 30000 nM	–
< 300 nM	79.5 nM	–	< 300 nM	–	–	CN1CCN(c2ccc(C(=O)Nc3cc(CCc4ccco4)n[nH]3)cc2)CC1 [Example 8, N-[5-[2-(2-furyl)ethyl]-2H-pyrazol-3-yl]-4-(4-methylpiperazin-1-yl)benzamide]	< 300 nM	–
< 300 nM	–	137 nM	< 300 nM	–	–	CN1CCN(c2ccc(C(=O)Nc3cc(CCc4ccoc4)n[nH]3)cc2)CC1 [Example 9, N-[5-[2-(3-furyl)ethyl]-2H-pyrazol-3-yl]-4-(4-methylpiperazin-1-yl)benzamide]	300 to 1000 nM	–
< 300 nM	82.8 nM	–	–	–	–	COc1cccc(CCc2cc(NC(=O)c3ccc(N4CCN(C)CC4)cc3)[nH]n2)c1 [Example 11, N-[5-[2-(3-methoxyphenyl)ethyl]-2H-pyrazol-3-yl]-4-(4-methylpiperazin-1-yl)benzamide]	< 300 nM	–
300 to 1000 nM	–	950 nM	300 to 1000 nM	–	–	COc1cccc(CCc2cc(NC(=O)c3ccc(C)nc3)[nH]n2)c1 [Example 13, N-[5-[2-(3-Methoxyphenyl)ethyl]-2H-pyrazol-3-yl]-6-methyl-pyridine-3-carboxamide]	–	–
300 to 1000 nM	–	610 nM	300 to 1000 nM	732 nM	612 nM	COc1cccc(CCc2cc(NC(=O)c3ccc(OC)nc3)[nH]n2)c1 [Example 14, 6-Methoxy-N-[5-[2-(3-methoxyphenyl)ethyl]-2H-pyrazol-3-yl]pyridine-3-carboxamide]	–	–
< 300 nM	–	110 nM	< 300 nM	–	–	COc1cccc(CCc2cc(NC(=O)c3ccc(S(C)(=O)=O)cc3)[nH]n2)c1 [Example 15, N-[5-[2-(3-Methoxyphenyl)ethyl]-2H-pyrazol-3-yl]-4-methylsulfonyl-benzamide]	–	–
300 to 1000 nM	–	750 nM	300 to 1000 nM	–	–	COc1cccc(CCc2cc(NC(=O)c3cnc(C)cn3)[nH]n2)c1 [Example 16, N-[5-[2-(3-Methoxyphenyl)ethyl]-2H-pyrazol-3-yl]-5-methyl-pyrazine-2-carboxamide]	–	–
300 to 1000 nM	–	660 nM	300 to 1000 nM	–	–	C#CCNc1ccc(C(=O)Nc2cc(CCc3cccc(OC)c3)n[nH]2)nc1 [Example 17, N-[5-[2-(3-Methoxyphenyl)ethyl]-2H-pyrazol-3-yl]-5-(prop-2-ynylamino)pyridine-2-carboxamide]	–	–
300 to 1000 nM	–	540 nM	300 to 1000 nM	–	–	CCNc1ccc(C(=O)Nc2cc(CCc3cccc(OC)c3)n[nH]2)cn1 [Example 18, 6-Ethylamino-N-{5-[2-(3-methoxy-phenyl)-ethyl]-2H-pyrazol-3-yl}-nicotinamide]	300 to 1000 nM	877 nM
< 300 nM	–	400 nM	300 to 1000 nM	–	–	COc1cccc(CCc2cc(NC(=O)c3ccc(NC(C)=O)cc3)[nH]n2)c1 [Example 19, 4-Acetamido-N-[5-[2-(3-methoxyphenyl)ethyl]-2H-pyrazol-3-yl]benzamide]	–	–
< 300 nM	–	46 nM	< 300 nM	–	–	COc1cc(COc2cc(NC(=O)c3cnc(N4CCN(C)CC4)cn3)[nH]n2)cc(OC)c1 [Example 20, N-[5-[(3,5-Dimethoxyphenyl)methoxy]-2H-pyrazol-3-yl]-5-(4-methylpiperazin-1-yl)pyrazine-2-carboxamide]	–	–
